Measurements from paper PMC9889419 (Pharmacological Reports, 2022).
Where a name gives a salt, the structure may show the parent alone.

Tests used:
Assay in all cases: Radioligand binding
5-HT1A = target: T1, 5-HT1A (Homo sapiens, UniProt P08908)
T1 sequence (P08908 1-422): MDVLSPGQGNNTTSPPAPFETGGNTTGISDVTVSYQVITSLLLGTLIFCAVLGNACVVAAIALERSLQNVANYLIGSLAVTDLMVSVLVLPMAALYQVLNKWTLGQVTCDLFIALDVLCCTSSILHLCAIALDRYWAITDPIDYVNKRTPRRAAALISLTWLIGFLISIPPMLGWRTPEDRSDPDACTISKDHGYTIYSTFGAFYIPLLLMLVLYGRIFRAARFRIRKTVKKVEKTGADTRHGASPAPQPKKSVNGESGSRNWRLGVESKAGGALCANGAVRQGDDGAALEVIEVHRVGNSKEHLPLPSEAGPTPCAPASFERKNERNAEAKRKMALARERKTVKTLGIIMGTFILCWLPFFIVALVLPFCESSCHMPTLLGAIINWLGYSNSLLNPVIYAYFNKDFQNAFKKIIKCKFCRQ
Method: (§1) Radioligand binding. Radioligand binding assays were performed at Eurofins CEREP (France). The results are expressed as a percent of control specific binding (measured specific binding*100/control specific binding) and as a percent inhibition of control specific binding (100-(measured specific binding*100)/control specific binding) obtained in the presence of the test compounds. The IC50 values (concentration causing a half-maximal inhibition of control specific binding) and Hill coefficients (nH) were determined by non-linear regression analysis of the competition curves generated with mean replicate values using Hill equation curve fitting (Y = D + [A-D]/[1 + (C/C50)^nH], where Y = specific binding, A = left asymptote of the curve, D = right asymptote of the curve, C = compound concentration, C50 = IC50, and nH = slope factor). This analysis was performed using software developed at Cerep (Hill software) and validated by comparison with data generated by the commercial software SigmaPlot® 4.0 for Windows® (© 1997 by SPSS Inc.). The inhibition constants (Ki) were calculated using the Cheng Prusoff equation (Ki = IC50/[1 + L/KD], where L = concentration of radioligand in the assay, and KD = affinity of the radioligand for the receptor). A scatchard plot is used to determine the Kd.

5-HT7 = 5-HT7 (Homo sapiens, UniProt P34969)
Chain of 5-HT7 (P34969 whole entry): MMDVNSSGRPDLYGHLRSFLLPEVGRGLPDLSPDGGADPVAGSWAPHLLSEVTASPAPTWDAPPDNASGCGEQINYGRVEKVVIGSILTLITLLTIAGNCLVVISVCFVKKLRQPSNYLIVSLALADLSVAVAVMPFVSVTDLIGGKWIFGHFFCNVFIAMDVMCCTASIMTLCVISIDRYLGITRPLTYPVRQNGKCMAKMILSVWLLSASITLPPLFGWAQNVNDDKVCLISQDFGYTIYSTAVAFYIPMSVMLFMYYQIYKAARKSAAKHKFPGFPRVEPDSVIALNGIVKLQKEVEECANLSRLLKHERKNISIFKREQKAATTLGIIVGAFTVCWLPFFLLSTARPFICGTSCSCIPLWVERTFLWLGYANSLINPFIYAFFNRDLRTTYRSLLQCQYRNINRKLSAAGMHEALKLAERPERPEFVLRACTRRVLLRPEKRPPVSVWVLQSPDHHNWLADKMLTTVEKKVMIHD
Method: as §1

D3 = D3 (Homo sapiens, UniProt P35462)
Chain of D3 (P35462 whole entry): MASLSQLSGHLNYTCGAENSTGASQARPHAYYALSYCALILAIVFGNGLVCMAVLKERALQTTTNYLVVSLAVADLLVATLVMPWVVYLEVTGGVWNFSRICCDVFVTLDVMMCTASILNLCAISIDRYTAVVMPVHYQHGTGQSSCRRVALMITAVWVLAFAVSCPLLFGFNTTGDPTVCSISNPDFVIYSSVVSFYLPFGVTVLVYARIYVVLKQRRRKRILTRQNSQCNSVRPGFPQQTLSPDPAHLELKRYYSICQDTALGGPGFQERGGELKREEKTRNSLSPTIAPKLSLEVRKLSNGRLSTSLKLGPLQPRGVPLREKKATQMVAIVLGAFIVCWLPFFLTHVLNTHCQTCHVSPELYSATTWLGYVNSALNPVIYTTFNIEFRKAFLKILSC
Method: as §1

D4.4 = target: T2, D4.4 (Homo sapiens, UniProt P21917)
T2 sequence (P21917 1-419): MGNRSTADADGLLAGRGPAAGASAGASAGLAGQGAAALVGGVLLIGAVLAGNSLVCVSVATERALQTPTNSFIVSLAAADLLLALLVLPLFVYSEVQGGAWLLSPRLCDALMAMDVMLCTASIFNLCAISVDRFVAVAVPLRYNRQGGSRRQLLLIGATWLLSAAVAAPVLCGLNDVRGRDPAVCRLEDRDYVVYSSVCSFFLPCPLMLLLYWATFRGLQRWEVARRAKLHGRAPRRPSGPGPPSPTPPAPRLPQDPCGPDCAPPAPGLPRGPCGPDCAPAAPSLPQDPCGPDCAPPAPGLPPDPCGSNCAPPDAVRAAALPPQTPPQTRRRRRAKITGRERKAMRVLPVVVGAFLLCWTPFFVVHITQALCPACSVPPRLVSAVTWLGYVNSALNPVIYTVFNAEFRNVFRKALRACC
Method: as §1

M1 = target: T3, M1 (Homo sapiens, UniProt P11229)
T3 sequence (P11229 1-460): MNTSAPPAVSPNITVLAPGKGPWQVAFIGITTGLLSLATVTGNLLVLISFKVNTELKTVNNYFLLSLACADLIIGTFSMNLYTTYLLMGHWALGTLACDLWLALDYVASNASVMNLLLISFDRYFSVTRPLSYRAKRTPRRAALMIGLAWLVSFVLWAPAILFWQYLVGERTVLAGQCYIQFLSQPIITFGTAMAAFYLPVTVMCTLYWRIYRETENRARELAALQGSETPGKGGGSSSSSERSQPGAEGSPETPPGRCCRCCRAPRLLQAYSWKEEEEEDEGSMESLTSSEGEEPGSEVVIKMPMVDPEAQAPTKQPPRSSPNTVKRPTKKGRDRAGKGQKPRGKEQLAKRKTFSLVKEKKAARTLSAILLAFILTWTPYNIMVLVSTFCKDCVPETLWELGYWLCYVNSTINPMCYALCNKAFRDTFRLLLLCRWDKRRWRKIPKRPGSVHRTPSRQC
Method: as §1

M5 = target: T4, M5 (Homo sapiens, UniProt P08912)
T4 sequence (P08912 1-532): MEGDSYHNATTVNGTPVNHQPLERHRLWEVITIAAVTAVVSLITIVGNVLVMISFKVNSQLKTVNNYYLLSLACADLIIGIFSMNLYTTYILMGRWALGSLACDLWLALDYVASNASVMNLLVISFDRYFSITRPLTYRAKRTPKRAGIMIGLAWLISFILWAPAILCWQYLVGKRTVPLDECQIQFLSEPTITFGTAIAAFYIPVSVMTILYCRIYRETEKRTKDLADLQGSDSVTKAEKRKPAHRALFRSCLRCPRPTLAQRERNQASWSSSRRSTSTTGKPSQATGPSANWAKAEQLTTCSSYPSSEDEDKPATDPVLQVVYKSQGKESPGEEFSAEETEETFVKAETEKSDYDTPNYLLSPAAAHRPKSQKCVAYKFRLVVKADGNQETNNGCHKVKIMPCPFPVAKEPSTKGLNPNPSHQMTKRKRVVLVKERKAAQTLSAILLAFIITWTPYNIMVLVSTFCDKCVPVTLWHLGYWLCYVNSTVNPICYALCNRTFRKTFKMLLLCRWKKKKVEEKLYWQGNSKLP
Method: as §1

dopamine transporter = dopamine transporter (Homo sapiens, UniProt Q01959)
Chain of dopamine transporter (Q01959 whole entry): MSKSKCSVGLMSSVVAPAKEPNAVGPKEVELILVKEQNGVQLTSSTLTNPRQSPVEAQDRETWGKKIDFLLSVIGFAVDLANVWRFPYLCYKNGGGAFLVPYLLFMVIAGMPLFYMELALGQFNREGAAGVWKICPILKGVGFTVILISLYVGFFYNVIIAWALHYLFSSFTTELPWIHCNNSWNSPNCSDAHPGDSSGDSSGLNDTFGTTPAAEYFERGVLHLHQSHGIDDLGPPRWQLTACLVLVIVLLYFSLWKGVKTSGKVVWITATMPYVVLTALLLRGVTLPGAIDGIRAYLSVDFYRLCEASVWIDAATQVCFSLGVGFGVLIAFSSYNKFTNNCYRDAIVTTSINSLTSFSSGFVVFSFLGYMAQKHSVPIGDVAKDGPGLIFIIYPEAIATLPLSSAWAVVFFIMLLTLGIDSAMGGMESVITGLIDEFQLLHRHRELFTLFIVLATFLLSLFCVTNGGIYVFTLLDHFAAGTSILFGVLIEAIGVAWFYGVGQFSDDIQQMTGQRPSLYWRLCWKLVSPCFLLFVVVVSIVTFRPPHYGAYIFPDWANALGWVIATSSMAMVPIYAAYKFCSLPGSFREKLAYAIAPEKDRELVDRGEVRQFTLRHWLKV
Method: as §1

κ (KOP) = κ (KOP) (Rattus norvegicus, UniProt P34975)
Chain of κ (KOP) (P34975 whole entry): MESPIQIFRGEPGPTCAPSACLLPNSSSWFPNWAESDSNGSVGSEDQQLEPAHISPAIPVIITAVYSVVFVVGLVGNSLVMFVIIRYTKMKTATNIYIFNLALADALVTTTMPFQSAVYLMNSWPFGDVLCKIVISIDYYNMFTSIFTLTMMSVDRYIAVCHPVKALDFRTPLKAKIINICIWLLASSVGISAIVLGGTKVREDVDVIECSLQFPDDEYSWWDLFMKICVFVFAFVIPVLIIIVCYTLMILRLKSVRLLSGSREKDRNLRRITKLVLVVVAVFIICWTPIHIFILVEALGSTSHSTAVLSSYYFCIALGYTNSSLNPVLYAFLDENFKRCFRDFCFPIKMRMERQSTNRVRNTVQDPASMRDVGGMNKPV
Method: as §1

[1] = 0.01 μM, read-out: % of control specific binding
[2] = 0.1 μM, read-out: % of control specific binding
[3] = 1 μM, read-out: % of control specific binding
[4] = 10 μM, read-out: % of control specific binding
[5] = 100 μM, read-out: % of control specific binding
[6] = 3 μM, read-out: % of control specific binding

For `CCC(CO)NCCOc1c(C)cccc1Cl` (stereo not shown) [KM-408, R,S-2-((2-(2-chloro-6-methylphenoxy)ethyl)amino)butan-1-ol hydrochloride], the IC50 (5-HT1A) was 1.3 µM, the Ki (5-HT1A) was 0.8 µM and the remaining activity at 0.001 µM (5-HT1A; 0.001 μM, read-out: % of control specific binding) was 100%. The remaining activity at 0.01 µM (5-HT1A; [1]) was 95.9%, the remaining activity at 0.1 µM (5-HT1A; [2]) was 88.6% and the remaining activity at 1 µM (5-HT1A; [3]) was 55.6%. For the same molecule, the remaining activity at 10 µM (5-HT1A; [4]) was 12.5%, the IC50 (5-HT7) was 18 µM and the Ki (5-HT7) was 6.5 µM. For the same molecule, the remaining activity at 0.01 µM (5-HT7; [1]) was 107%, the remaining activity at 0.1 µM (5-HT7; [2]) was 106% and the remaining activity at 1 µM (5-HT7; [3]) was 105%. For the same molecule, the remaining activity at 10 µM (5-HT7; [4]) was 66.1%, the remaining activity at 100 µM (5-HT7; [5]) was 20.2% and the IC50 (D3) was 22 µM. The Ki (D3) was 4.9 µM, the remaining activity at 0.003 µM (D3; 0.003 μM, read-out: % of control specific binding) was 104% and the remaining activity at 0.03 µM (D3; 0.03 μM, read-out: % of control specific binding) was 103%. For the same molecule, the remaining activity at 0.3 µM (D3; 0.3 μM, read-out: % of control specific binding) was 102%, the remaining activity at 3 µM (D3; [6]) was 95.3% and the remaining activity at 30 µM (D3; 30 μM, read-out: % of control specific binding) was 42.5%. The IC50 (D4.4) was 66 µM, the Ki (D4.4) was 25 µM and the remaining activity at 0.01 µM (D4.4; [1]) was 100%. It also gave a remaining activity at 0.1 µM (D4.4; [2]) of 101%, a remaining activity at 1 µM (D4.4; [3]) of 97.6% and a remaining activity at 10 µM (D4.4; [4]) of 87.9%. For the same molecule, the remaining activity at 100 µM (D4.4; [5]) was 39.4%, the IC50 (M1) was 64 µM and the Ki (M1) was 55 µM. The remaining activity at 0.1 µM (M1; [2]) was 114%, the remaining activity at 1 µM (M1; [3]) was 108% and the remaining activity at 3 µM (M1; [6]) was 123%. The remaining activity at 10 µM (M1; [4]) was 99.7%, the remaining activity at 100 µM (M1; [5]) was 43.1% and the IC50 (M5) was 35 µM. For the same molecule, the Ki (M5) was 18 µM, the remaining activity at 0.01 µM (M5; [1]) was 104% and the remaining activity at 0.1 µM (M5; [2]) was 92.6%. The remaining activity at 1 µM (M5; [3]) was 96.8%, the remaining activity at 10 µM (M5; [4]) was 76.6% and the remaining activity at 100 µM (M5; [5]) was 26%. It also gave an IC50 (dopamine transporter) of 43 µM, a Ki (dopamine transporter) of 23 µM and a remaining activity at 0.1 µM (dopamine transporter; [2]) of 93.9%. It also gave a remaining activity at 1 µM (dopamine transporter; [3]) of 87.8%, a remaining activity at 3 µM (dopamine transporter; [6]) of 94.4% and a remaining activity at 10 µM (dopamine transporter; [4]) of 72.6%. It also gave a remaining activity at 100 µM (dopamine transporter; [5]) of 29.6%, an IC50 (κ (KOP)) of 25 µM and a Ki (κ (KOP)) of 17 µM. The remaining activity at 0.01 µM (κ (KOP); [1]) was 104%, the remaining activity at 0.1 µM (κ (KOP); [2]) was 98.3% and the remaining activity at 1 µM (κ (KOP); [3]) was 97.3%. It also gave a remaining activity at 10 µM (κ (KOP); [4]) of 72.1% and a remaining activity at 100 µM (κ (KOP); [5]) of 21.1%.

For `CCC(CO)NCCOc1c(C)cccc1Cl` (stereo not shown) [Compound 4, R,S-2-((2-(2-chloro-6-methylphenoxy)ethyl)amino)butan-1-ol], the “% of control specific binding” value (5-HT1A; 100 μM) was 2.1%, the “% of control specific binding” value (5-HT7; 100 μM) was 26.4% and the “% of control specific binding” value (D3; 100 μM) was 11.9%. The “% of control specific binding” value (D4.4; 100 μM) was 26.6%, the “% of control specific binding” value (M1; 100 μM) was 46.7% and the “% of control specific binding” value (M5; 100 μM) was 21.5%. For the same molecule, the “% of control specific binding” value (dopamine transporter; 100 μM) was 29.6% and the “% of control specific binding” value (κ (KOP); 100 μM) was 29.0%.
